In assay [1] the test system is MCF7. The assay can be described thus: Cytotoxicity against human MCF7 cells assessed as cell viability after 48 hrs by MTT assay. The class given is functional, cell-based. As to conditions: MCF7, 48 h. On the technique in general: Tetrazolium assays rely on reduction of a dye to a coloured formazan, in cell work by metabolically active cells.
In assay [2] the test system is HeLa. The assay can be described thus: Cytotoxicity against human HeLa cells assessed as cell viability after 72 hrs by MTT assay. The class given is functional, cell-based.
Assay [3] relates to MCF7. The assay can be described thus: Cytotoxicity against human MCF7 cells assessed as cell viability after 72 hrs by MTT assay. It is filed as functional, cell-based. As to conditions: MCF7, 72 h.
In assay [4] the test system is Vero. The assay can be described thus: Cytotoxicity against african green monkey Vero cells assessed as cell viability after 72 hrs by MTT assay. The class given is cell-based. The conditions noted are these: Chlorocebus sabaeus.
Assay [5] relates to Vero. The assay can be described thus: Cytotoxicity against african green monkey Vero cells assessed as cell viability after 48 hrs by MTT assay. The class given is cell-based. As to conditions: Chlorocebus sabaeus.
Assay [6] relates to A549. The assay can be described thus: Cytotoxicity against human A549 cells assessed as cell viability after 72 hrs by MTT assay. It is filed as functional, cell-based. As to conditions: A549, 72 h.
In assay [7] the test system is A549. The assay can be described thus: Cytotoxicity against human A549 cells assessed as cell viability after 48 hrs by MTT assay. It is filed as functional, cell-based. As to conditions: A549, 48 h.
Assay [8] has as its system Vero. The assay can be described thus: Selectivity index, ratio of IC50 for african green monkey Vero cells to IC50 for human MCF7 cells after 48 hrs.
For assay [9], the system named is HeLa. The assay can be described thus: Cytotoxicity against human HeLa cells assessed as cell viability after 48 hrs by MTT assay. It is filed as functional, cell-based.

15 compounds from ChEMBL document CHEMBL2046268 (Eur J Med Chem, 2012) can be followed below.

With `CC(=O)OCC1=C(C)C[C@H]([C@@H](C)[C@H]2CC[C@H]3[C@@H]4C[C@H]5O[C@]56[C@@H](O)[C@@H](O)CC(=O)[C@]6(C)[C@H]4CC[C@]23C)OC1=O`, the IC50 in the assay on MCF7 [1] stood at 9.2 µM; with HeLa [2], 8.3 µM; with MCF7 [3], 7.1 µM; in the assay with Vero [4] it was 4.9 µM; with Vero [5], 8.6 µM; in the assay on A549 [6] it was 21.3 µM. Also, the IC50 in the assay on A549 [7] came to 18.4 µM; with HeLa [9], 8.9 µM. In addition, the “Ratio IC50” value in the assay on Vero [8] is below 1.

As for `CC1=C(CO)C(=O)O[C@@H]([C@@H](C)[C@@]2(O)CC[C@H]3[C@@H]4C[C@H]5O[C@]56[C@@H](O)C=CC(=O)[C@]6(C)[C@H]4CC[C@@]32C)C1`, the IC50 came out at 16.3 µM with MCF7 [1]; 19.8 µM in the assay with HeLa [2]; 10.3 µM in the assay on MCF7 [3]; 21.8 µM with Vero [4]; 28.8 µM with Vero [5]; 31.7 µM in the assay on A549 [6]. In addition, the IC50 with A549 [7] was above 40 µM; in the assay on HeLa [9] it was 17.7 µM. The “Ratio IC50” value in the assay on Vero [8] was 1.8.

For the compound `Sc1ncnc2nc[nH]c12` [MERCAPTOPURINE ANHYDROUS], the “Ratio IC50” value with Vero [8] is 48.3.

For the compound `CC1=C(CO)C(=O)O[C@@H]([C@@H](C)[C@H]2CC[C@H]3[C@@H]4C[C@H]5O[C@]56C(=O)C=CC(=O)[C@]6(C)[C@H]4CC[C@]23C)C1`, the IC50 with MCF7 [1] amounted to 3.2 µM; in the assay on HeLa [2], 15.2 µM; in the assay on MCF7 [3], 2.1 µM; in the assay with Vero [4] it was 1.5 µM; with Vero [5], 7.7 µM; in the assay with A549 [6], 12.8 µM. In addition, the IC50 in the assay with A549 [7] came out at 25.4 µM; with HeLa [9] it was 18.4 µM. Further, the “Ratio IC50” value with Vero [8] is 2.4.

As to `CC1=C(CO)C(=O)O[C@@H]([C@@H](C)[C@H]2CC[C@H]3[C@@H]4C[C@@H](O)[C@]5(C=O)CCC(=O)[C@]5(C)[C@H]4CC[C@]23C)C1`, the half-inhibitory concentration (IC50) in the assay on MCF7 [1], with HeLa [2], with MCF7 [3], with Vero [4], with Vero [5] and in the assay with A549 [6] was above 40 µM throughout. Further, the IC50 in the assay on A549 [7] and with HeLa [9] was above 40 µM each time.

For `CC1=C(C)C(=O)O[C@@H]([C@@H](C)[C@H]2CC[C@H]3[C@@H]4C[C@@H](O)[C@]5(C=O)CCC(=O)[C@]5(C)[C@H]4CC[C@]23C)C1`, the IC50 in the assay with MCF7 [1], with HeLa [2], with MCF7 [3], in the assay on Vero [4], with Vero [5] and in the assay with A549 [6] was above 40 µM in each case. The 50% inhibitory concentration (IC50) in the assay with A549 [7] and in the assay on HeLa [9] was above 40 µM each time.

Regarding `CC1=C(CO)C(=O)O[C@@H]([C@@H](C)[C@H]2CC[C@H]3[C@@H]4C[C@@H](O)[C@@]5(O)[C@@H](O)[C@@H](O)CC(=O)[C@]5(C)[C@H]4CC[C@]23C)C1`, the IC50 with MCF7 [1], in the assay with HeLa [2], in the assay with MCF7 [3], in the assay with Vero [4], with Vero [5] and in the assay on A549 [6] was above 40 µM in each case. Also, the IC50 in the assay with A549 [7] and with HeLa [9] was above 40 µM each time.

On to `CC(=O)OCC1=C(C)C[C@H]([C@@H](C)[C@H]2CC[C@H]3[C@@H]4C[C@H]5O[C@]56[C@@H](O)C=CC(=O)[C@]6(C)[C@H]4CC[C@]23C)OC1=O`, for which the IC50 was determined as 5.3 µM in the assay on MCF7 [1]; 4.7 µM in the assay with HeLa [2]; 2 µM with MCF7 [3]; 8.5 µM in the assay on Vero [4]; 11.4 µM in the assay on Vero [5]; 4.4 µM with A549 [6]. Besides, the IC50 in the assay with A549 [7] was 6.7 µM; in the assay on HeLa [9], 7.7 µM. For the same compound, the “Ratio IC50” value with Vero [8] came out at 2.2.

For `CC1=C(C)C(=O)O[C@@H]([C@@H](C)C2=CC[C@H]3[C@@H]4C[C@H]5O[C@]56[C@@H](O)C=CC(=O)[C@]6(C)[C@H]4CC[C@]23C)C1`, the IC50 is 12.6 µM with MCF7 [1]; 8 µM in the assay with HeLa [2]; 2.2 µM in the assay with MCF7 [3]; 3.1 µM in the assay with Vero [4]; 4.7 µM in the assay on Vero [5]; 5.5 µM in the assay with A549 [6]. The results for the IC50 in the assay on A549 [7] and in the assay on HeLa [9] were 40 µM and 21.5 µM, respectively. In the assay on Vero [8], the “Ratio IC50” value is on record as below 1.

With `CC1=C(CO)C(=O)O[C@@H]([C@@H](C)[C@H]2CC[C@H]3[C@@H]4C[C@H](Cl)[C@]5(O)[C@@H](O)C=CC(=O)[C@]5(C)[C@H]4CC[C@]23C)C1`, the IC50 with MCF7 [1] came out at 7.5 µM; with HeLa [2], 12.1 µM; in the assay with MCF7 [3] it was 1.3 µM; with Vero [4], 7.8 µM; with Vero [5] it was 14.8 µM; in the assay with A549 [6], 8.6 µM. Moreover, the half-inhibitory concentration (IC50) in the assay with A549 [7] turned out to be 14.7 µM; in the assay with HeLa [9], 13.4 µM. Besides, the “Ratio IC50” value in the assay with Vero [8] was 2.

On to `CC1=C(CO)C(=O)O[C@@H]([C@@H](C)[C@H]2CC[C@H]3[C@@H]4C[C@@H](O)[C@]5(C=O)C=CC(=O)[C@]5(C)[C@H]4CC[C@]23C)C1`, for which the IC50 in the assay on MCF7 [1], with HeLa [2], in the assay on MCF7 [3], in the assay on Vero [4], in the assay on Vero [5] and with A549 [6] was above 40 µM in each case. For the same compound, the IC50 in the assay with A549 [7] and with HeLa [9] was above 40 µM each time.

As for `CC1=C(COC(C)(C)OC=O)C(=O)O[C@@H]([C@@H](C)[C@H]2CC[C@H]3[C@@H]4C[C@H]5O[C@]56[C@@H](O)C=CC(=O)[C@]6(C)[C@H]4CC[C@]23C)C1`, the IC50 in the assay with MCF7 [1] was 26.9 µM; in the assay with HeLa [2], 37.3 µM; in the assay with MCF7 [3], 18.3 µM; in the assay on Vero [4], 18.5 µM; in the assay on Vero [5], 27.8 µM; in the assay on A549 [6], above 40 µM. Further, the 50% inhibitory concentration (IC50) in the assay with A549 [7] and with HeLa [9] was above 40 µM in each case. Besides, in the assay on Vero [8], the “Ratio IC50” value is 1.

For `CC1=C(CO)C(=O)O[C@@H](/C(C)=C2\[C@@H](O)C[C@H]3[C@@H]4C[C@H]5O[C@]56[C@@H](O)C=CC(=O)[C@]6(C)[C@H]4CC[C@]23C)C1`, the IC50 was 27.7 µM in the assay with MCF7 [1]; 31.1 µM in the assay with HeLa [2]; 6 µM in the assay with MCF7 [3]; above 40 µM in the assay with Vero [4]; above 40 µM with Vero [5]; above 40 µM with A549 [6]. For the same compound, the half-inhibitory concentration (IC50) was above 40 µM in the assay on A549 [7] and 40 µM in the assay on HeLa [9]. In addition, the “Ratio IC50” value in the assay on Vero [8] was below 1.

With `CC1=C(CO)C(=O)O[C@@H]([C@@H](C)[C@H]2CC[C@H]3[C@@H]4C[C@H](O)[C@]5(O)[C@@H](O)C=CC(=O)[C@]5(C)[C@H]4CC[C@]23C)C1`, the IC50 was 38.4 µM in the assay on MCF7 [1]; 31.4 µM in the assay with HeLa [2]; 36.2 µM with MCF7 [3]; 26.9 µM in the assay with Vero [4]; 40 µM in the assay on Vero [5]; 36.4 µM in the assay with A549 [6]. Moreover, the IC50 in the assay with A549 [7] and in the assay on HeLa [9] was above 40 µM in each case. Moreover, in the assay on Vero [8], the “Ratio IC50” value was determined as 1.

With `CC1=C(CO)C(=O)O[C@@H]([C@@H](C)[C@H]2CC[C@H]3[C@@H]4C[C@H]5O[C@]56[C@@H](O)CCC(=O)[C@]6(C)[C@H]4CC[C@]23C)C1`, the half-inhibitory concentration (IC50) with MCF7 [1] worked out at 14.4 µM; in the assay with HeLa [2] it was 19.3 µM; with MCF7 [3], 5.4 µM; in the assay on Vero [4] it was 9 µM; in the assay with Vero [5], 15.5 µM; in the assay with A549 [6], 17.2 µM. Moreover, the IC50 in the assay with A549 [7] worked out at 33.5 µM; in the assay on HeLa [9], 28.9 µM. Besides, the “Ratio IC50” value in the assay with Vero [8] is recorded as 1.1.

The IC50 is the concentration needed to halve the response being measured.
